The results in this text go back to patent publication US8795679B2, “Pharmaceutical and cosmetic use of extracts from algae obtainable from saline hot water sources” (Blaa Lonid Hf, priority 2006, dated 2014).

For the test, the system named is differentiation markers involucrin, transglutaminase-1, filaggrin, and loricrin in human epidermal keratinocytes. Description: Induction of differentiation markers in human epidermal keratinocytes (real time RT-PCR). Format: cell-based. Conditions: especially at the early time point, 24 h post addition of the tested substance. How it is done:
The effect of the extracts obtained in Examples 1 and 2 on the differentiation markers involucrin, transglutaminase-1, filaggrin, and loricrin in human epidermal keratinocytes has been assessed. As control a ceramide mix (10 μM) was used to induce the differentiation markers.
Long term cultured normal human epidermal keratinocytes, NHEK, prepared from neonatal foreskin are cultured in Keratinocyte SFM (Invitrogen, Heidelberg, Germany) supplemented with bovine pituitary extract (Invitrogen, Heidelberg, Germany) and recombinant epidermal growth factor (Invitrogen, Heidelberg, Germany). Cells are propagated up to passage 2 or 3 at 37° C. and 5% CO2. For induction of differentiation NHEKs are seeded in 6-well plates and grown up to confluence and treated with several concentrations of the algae extracts.
Total RNA was isolated using RNeasy Total RNA Kits (Qiagen, Hilden, Germany). The RNA concentration was determined via photometric measurement at 260/280 (Biophotometer, Eppendorf A G, Hamburg, Germany). An aliquot of 100 ng RNA was used for cDNA synthesis. […]
PCR reactions were carried out on an Opticon 1 (MJ Research, Waltham, Mass., USA) using SYBR Green® PCR Master Mix (Applied Biosystems, Darmstadt, Germany). Each sample was analyzed in double employing the universal protocol over 36 cycles. […]
(Real-time PCR tracks product formation cycle by cycle.)

Consider `O=[Si]([O-])[O-].[Na+].[Na+]` [sodium metasilicate], for which the “expression of the differentiation markers involucrin, filaggrin and transglutaminase-1 (silica samples)” value is listed as “substantial up-regulation”.
